# From ChEMBL document CHEMBL1201862, “PubChem BioAssay data set” (2004)
# Activity calls are given as the source filed them.
# What was measured:
# [1] = ATP-based viability loss in HeLa cells – cell-based, CellTiter-Glo luminescence, dry powder, set 2, cytotoxicity control, dose response (AID 720593); type: functional
# [2] = ATP-based viability loss in HEK293T cells – cell-based, CellTiter-Glo luminescence, dry powder, set 2, cytotoxicity control, dose response (AID 720595); type: functional; conditions: HEK293
# [3] = glucagon-like peptide-1 release potency in STC-1, concentration-response, half-maximal inhibitory concentration in the STC-1 line (AID 1117345); type: functional, cell-based
# [4] = Potency on glucagon-like peptide 1 release, dose-response in NCI-H716 cell line, half maximal inhibitory concentration (AID 1117344); type: functional, cell-based
# [5] = molecular target: Photoreceptor-specific nuclear receptor (Homo sapiens, UniProt Q9Y5X4); assay: ligands suppressing NR2E3 nuclear receptor activity – biochemical, TR-FRET, dose response (AID 463256); type: functional
# Photoreceptor-specific nuclear receptor, sequence (Q9Y5X4 whole entry): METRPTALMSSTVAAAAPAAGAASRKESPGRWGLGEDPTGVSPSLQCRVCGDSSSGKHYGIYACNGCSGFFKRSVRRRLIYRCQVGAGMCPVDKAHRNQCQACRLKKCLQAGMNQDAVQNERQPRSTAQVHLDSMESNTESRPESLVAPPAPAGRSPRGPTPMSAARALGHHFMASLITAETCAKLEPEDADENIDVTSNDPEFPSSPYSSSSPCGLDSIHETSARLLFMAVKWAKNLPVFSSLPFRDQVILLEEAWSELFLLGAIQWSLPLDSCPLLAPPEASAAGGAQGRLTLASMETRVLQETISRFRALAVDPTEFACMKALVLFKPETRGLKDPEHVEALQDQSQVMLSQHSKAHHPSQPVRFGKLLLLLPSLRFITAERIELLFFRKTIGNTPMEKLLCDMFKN
# [6] = molecular target: Peroxisome proliferator-activated receptor gamma/Nuclear receptor corepressor 2 (Homo sapiens, UniProt P37231+Q9Y618); assay: Counterscreen for NR2E3 inverse agonists: TR-FRET-based biochemical high throughput dose response assay to identify inverse agonists of the interaction between peroxisome proliferator-activated receptor gamma (PPARg) and nuclear receptor co-repressor 2 (NCOR2).; type: functional
# Peroxisome proliferator-activated receptor gamma/Nuclear receptor corepressor 2, sequence (P37231 whole entry): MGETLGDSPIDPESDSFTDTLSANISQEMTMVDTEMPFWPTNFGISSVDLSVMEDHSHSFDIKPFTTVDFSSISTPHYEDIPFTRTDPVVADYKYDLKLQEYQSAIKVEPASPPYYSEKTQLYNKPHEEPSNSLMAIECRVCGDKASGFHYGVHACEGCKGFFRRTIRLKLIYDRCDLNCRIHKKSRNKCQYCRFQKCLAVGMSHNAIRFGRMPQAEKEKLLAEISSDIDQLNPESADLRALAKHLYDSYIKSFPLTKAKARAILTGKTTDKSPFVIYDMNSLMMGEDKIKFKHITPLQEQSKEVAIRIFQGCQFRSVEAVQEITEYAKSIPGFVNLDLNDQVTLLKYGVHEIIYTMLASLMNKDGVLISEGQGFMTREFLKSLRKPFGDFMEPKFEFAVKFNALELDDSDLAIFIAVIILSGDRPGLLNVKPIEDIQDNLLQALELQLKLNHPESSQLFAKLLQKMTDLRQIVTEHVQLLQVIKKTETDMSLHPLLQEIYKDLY
# Peroxisome proliferator-activated receptor gamma/Nuclear receptor corepressor 2, sequence (Q9Y618 whole entry): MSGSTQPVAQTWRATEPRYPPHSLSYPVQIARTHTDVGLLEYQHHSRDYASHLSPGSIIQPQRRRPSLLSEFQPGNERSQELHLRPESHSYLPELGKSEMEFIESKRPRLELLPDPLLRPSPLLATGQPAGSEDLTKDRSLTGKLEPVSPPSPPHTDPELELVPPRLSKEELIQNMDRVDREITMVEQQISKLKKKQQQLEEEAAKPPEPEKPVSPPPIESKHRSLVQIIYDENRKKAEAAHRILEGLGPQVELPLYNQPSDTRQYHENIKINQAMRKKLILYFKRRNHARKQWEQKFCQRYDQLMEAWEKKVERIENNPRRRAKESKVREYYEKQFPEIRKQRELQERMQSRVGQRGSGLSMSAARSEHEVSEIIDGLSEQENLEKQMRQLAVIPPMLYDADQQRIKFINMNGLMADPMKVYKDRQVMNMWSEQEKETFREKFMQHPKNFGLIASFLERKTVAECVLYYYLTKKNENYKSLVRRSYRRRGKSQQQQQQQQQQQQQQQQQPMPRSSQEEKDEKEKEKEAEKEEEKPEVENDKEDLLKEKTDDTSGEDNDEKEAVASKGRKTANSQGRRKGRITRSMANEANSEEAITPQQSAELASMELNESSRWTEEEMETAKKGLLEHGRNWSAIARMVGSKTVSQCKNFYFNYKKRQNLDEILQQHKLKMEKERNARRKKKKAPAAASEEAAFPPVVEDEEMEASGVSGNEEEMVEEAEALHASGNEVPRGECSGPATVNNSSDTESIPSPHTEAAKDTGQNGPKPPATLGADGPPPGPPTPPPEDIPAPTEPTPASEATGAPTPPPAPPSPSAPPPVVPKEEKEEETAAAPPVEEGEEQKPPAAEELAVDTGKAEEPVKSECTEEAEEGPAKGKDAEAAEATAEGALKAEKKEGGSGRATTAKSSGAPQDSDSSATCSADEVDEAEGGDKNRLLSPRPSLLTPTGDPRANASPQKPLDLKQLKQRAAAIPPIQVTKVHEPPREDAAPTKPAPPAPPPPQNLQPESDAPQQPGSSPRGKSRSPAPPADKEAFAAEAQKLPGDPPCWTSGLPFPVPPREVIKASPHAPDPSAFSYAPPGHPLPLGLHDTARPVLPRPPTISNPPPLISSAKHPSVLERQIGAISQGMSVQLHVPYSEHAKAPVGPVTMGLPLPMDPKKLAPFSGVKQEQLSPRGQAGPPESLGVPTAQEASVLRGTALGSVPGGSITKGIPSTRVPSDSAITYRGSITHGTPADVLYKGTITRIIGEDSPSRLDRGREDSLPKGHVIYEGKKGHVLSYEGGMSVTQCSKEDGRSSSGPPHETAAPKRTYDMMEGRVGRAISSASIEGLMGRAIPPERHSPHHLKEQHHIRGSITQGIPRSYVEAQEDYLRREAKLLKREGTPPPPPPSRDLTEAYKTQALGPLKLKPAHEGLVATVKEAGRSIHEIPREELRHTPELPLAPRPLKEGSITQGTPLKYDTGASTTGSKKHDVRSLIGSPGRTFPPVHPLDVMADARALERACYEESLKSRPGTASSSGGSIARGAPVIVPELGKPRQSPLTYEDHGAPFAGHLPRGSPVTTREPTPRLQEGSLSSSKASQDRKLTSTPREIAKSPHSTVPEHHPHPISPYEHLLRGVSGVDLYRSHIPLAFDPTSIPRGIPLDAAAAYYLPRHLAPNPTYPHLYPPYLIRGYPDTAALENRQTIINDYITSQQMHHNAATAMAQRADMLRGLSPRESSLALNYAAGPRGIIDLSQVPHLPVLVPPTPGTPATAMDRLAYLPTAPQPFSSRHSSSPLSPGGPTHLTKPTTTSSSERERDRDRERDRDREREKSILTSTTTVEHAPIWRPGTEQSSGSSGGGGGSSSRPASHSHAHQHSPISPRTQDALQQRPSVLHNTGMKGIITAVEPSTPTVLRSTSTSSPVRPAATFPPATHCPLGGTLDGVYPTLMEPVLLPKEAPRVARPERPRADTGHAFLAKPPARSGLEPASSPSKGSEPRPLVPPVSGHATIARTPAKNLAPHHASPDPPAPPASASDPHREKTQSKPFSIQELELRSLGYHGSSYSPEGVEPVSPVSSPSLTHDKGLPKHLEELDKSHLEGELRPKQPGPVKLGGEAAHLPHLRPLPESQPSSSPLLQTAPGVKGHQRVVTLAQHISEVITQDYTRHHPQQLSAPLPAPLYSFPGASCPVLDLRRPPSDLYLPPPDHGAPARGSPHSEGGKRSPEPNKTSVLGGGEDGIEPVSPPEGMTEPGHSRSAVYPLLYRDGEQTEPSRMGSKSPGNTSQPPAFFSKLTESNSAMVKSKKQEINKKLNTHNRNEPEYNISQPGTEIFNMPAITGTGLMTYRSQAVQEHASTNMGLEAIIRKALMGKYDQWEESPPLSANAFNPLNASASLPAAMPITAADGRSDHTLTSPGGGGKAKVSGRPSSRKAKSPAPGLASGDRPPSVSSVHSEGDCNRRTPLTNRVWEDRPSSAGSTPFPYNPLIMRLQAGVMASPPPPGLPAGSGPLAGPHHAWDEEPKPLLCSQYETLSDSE
# [7] = HCT116 cell viability decrease, GSK3B pretreatment – CellTiter-Glo, IC50, dose response (AID 1117339); type: functional; conditions: HCT-116
# [8] = cytotoxicity toward Colo320 cells – cell-based, CellTiter-Glo luminescence, IC50, dose response (AID 1117334); type: functional; conditions: COLO 320
# [9] = Reduced DLD-1 viability, concentration-response, CellTiter-Glo luminescence (AID 1117352); type: functional
# [10] = SNU-C1 cell viability reduction, dose response, CellTiter-Glo luminescence (AID 1117323); type: functional, cell-based
# [11] = cytotoxicity toward HT-29 cells – cell-based, CellTiter-Glo luminescence, IC50, dose response (AID 1117330); type: functional
# [12] = CellTiter-Glo luminescence survival assay, SW480 colon tumor line, concentration-response curve, half-maximal inhibitory concentration (AID 1117338); type: functional
# [13] = cytotoxicity toward HCT116 cells – cell-based, CellTiter-Glo luminescence, IC50, dose response (AID 1117332); type: functional; conditions: HCT-116
# [14] = RKO cell viability reduction, dose response, CellTiter-Glo luminescence (AID 1117322); type: functional
# [15] = viability loss in human Jurkat cells – cell-based, luminescence, cytotoxicity control for P. falciparum gametocyte viability project, dose response (AID 1117277); type: functional;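 also: potency reflects loss of cellular ATP meaning fewer viable cells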
# [16] = viability inhibitors of stage V gametocytes – luminescence, dose response (AID 1117278); type: functional, cell-based;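 also: gametocytes exposed to compound for 24 hours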
# [17] = Luminescence Cell-Based Dose Confirmation HTS to Identify Inhibitors of Polyadenylation.; type: functional
# [18] = acridine orange displacement from DNA – biochemical, fluorescence polarization, cherry-pick, artefact control for RAD54 inhibitor project, dose response (AID 651673); type: functional
# [19] = molecular target: DNA (cytosine-5)-methyltransferase 1 (Homo sapiens, UniProt P26358); assay: inhibition of DNA methylation by DNMT1 – biochemical, fluorescent molecular beacon, confirmation (AID 602386); type: functional
# DNA (cytosine-5)-methyltransferase 1, sequence (P26358 whole entry): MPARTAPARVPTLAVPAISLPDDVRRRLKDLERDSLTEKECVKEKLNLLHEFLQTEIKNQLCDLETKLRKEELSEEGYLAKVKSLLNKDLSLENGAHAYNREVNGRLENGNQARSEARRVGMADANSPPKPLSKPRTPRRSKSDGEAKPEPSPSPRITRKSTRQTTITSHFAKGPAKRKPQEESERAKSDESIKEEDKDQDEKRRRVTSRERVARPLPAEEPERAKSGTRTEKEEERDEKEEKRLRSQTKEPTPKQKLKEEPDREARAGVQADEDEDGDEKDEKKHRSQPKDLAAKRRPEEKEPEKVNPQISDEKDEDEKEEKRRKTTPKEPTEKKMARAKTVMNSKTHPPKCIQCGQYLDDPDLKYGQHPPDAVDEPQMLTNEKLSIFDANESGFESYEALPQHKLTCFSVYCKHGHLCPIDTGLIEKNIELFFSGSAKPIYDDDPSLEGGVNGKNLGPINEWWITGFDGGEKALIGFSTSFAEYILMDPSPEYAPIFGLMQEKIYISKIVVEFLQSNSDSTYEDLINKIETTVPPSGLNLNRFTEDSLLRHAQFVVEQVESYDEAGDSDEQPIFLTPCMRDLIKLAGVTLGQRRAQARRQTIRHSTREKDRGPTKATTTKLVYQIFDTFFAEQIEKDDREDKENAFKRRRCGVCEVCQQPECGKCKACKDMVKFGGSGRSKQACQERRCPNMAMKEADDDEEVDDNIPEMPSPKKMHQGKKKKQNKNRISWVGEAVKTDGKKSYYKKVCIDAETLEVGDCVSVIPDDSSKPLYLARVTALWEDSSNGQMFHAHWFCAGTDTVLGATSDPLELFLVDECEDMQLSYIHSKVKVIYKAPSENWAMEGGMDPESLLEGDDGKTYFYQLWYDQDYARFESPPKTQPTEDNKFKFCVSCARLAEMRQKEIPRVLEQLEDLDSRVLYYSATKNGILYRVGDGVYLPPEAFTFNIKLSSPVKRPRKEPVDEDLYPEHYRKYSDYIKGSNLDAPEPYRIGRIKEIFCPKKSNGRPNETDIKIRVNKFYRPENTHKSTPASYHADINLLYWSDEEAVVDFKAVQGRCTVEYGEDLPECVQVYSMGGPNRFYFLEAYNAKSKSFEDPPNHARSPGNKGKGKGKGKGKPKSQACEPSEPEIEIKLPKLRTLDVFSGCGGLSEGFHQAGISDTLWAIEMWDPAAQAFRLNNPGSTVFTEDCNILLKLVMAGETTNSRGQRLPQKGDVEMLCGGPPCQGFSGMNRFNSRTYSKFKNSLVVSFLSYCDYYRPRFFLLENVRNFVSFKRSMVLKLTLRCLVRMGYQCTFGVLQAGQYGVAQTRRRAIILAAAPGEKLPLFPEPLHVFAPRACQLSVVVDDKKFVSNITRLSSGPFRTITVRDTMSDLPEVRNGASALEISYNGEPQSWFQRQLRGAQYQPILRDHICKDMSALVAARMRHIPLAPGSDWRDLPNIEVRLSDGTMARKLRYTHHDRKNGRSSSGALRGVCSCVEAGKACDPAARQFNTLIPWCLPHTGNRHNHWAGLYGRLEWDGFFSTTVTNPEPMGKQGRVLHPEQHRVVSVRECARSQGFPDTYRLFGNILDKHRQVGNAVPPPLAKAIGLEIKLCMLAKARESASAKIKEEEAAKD
# [20] = molecular target: T1, DNA repair protein RAD52 homolog (Homo sapiens, UniProt P43351); type: functional, biochemical
# T1 sequence (P43351 whole entry): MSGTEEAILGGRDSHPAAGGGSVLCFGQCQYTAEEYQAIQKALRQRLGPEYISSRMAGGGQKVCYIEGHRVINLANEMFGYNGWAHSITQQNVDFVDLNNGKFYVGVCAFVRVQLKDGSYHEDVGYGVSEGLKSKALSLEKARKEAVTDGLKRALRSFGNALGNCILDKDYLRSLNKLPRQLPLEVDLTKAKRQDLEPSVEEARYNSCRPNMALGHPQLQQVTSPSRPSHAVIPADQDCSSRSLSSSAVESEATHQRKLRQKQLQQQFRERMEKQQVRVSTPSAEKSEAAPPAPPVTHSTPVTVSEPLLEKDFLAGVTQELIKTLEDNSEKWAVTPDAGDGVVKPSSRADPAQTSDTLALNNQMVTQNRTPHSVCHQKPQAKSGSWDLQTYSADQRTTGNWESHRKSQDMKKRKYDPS
# [21] = molecular target: T2, DNA repair and recombination protein RAD54-like (Homo sapiens, UniProt Q92698); assay: RAD54 Holliday junction migration blockers – biochemical, fluorescence, cherry-picked samples, dose series, confirmation (AID 651657); type: functional
# T2 sequence (Q92698 whole entry): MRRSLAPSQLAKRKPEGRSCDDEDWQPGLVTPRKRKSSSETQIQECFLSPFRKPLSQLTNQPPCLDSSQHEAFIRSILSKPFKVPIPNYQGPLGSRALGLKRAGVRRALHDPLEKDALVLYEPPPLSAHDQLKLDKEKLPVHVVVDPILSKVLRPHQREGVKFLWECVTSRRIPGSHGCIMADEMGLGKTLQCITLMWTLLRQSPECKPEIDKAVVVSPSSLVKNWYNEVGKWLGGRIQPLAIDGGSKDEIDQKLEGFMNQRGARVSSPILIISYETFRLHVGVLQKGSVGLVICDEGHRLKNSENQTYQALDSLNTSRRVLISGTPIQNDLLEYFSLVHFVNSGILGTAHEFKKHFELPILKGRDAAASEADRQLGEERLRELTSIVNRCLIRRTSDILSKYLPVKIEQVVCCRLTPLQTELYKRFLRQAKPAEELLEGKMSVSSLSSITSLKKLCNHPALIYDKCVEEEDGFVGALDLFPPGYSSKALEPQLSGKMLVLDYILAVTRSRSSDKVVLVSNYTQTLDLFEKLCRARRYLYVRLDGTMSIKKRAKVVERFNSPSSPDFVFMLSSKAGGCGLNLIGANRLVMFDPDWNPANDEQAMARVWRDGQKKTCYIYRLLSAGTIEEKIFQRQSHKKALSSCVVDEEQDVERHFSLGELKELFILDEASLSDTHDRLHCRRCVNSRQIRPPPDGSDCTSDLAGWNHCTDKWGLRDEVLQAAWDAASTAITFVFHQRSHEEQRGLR
# [22] = IC50 of insulin release inhibition, rat insulinoma INS-1E line, 5 mM glucose, cell-based (AID 1117331); type: functional
# cells = type: functional, cell-based; conditions: INS-1E
structure (smiles),measurement,setting,value
CCCCC(=O)NC(c1ccco1)c1ccc2cccnc2c1O (stereo not drawn),AC50,[1],28.4 µM (active)
same,AC50,[2],3.78 µM (active)
CN(C)[C@@H]1C(O)=C(C(=O)NCN2CCCC2)C(=O)[C@@]2(O)C(O)=C3C(=O)c4c(O)cccc4[C@@](C)(O)C3C[C@@H]12 (stereo partly drawn),IC50,[3],> 40 µM (inactive)
same,IC50,[4],> 40 µM (inactive)
Cc1cc(C)c2c(C)c(C(=O)NCc3ccc(S(N)(=O)=O)cc3)oc2c1,IC50,[5],4.06 µM (active)
same,IC50,[6],3.99 µM (active)
CNC(=O)Oc1cccc2ccccc12 [CARBARIL],IC50,[7],> 20 µM (inactive)
same,IC50,[8],> 20 µM (inactive)
same,IC50,[9],> 20 µM (inactive)
same,IC50,[10],> 20 µM (inactive)
same,IC50,[11],> 20 µM (inactive)
same,IC50,[12],> 20 µM (inactive)
same,IC50,[13],> 20 µM (inactive)
same,IC50,[14],> 20 µM (inactive)
O=C(O)c1ccc(-c2ccccc2)nc1O,IC50,[15],> 83.2 µM (inactive)
same,IC50,[16],> 109 µM (inactive)
CN(C)CCc1cc2c(c3c1ccc1ccccc13)OCO2,EC50,[17],> 120 µM (not active)
same,AC50,[18],39.9 µM (active)
same,IC50,[19],> 99 µM (inactive)
same,AC50,[20],1.29 µM (active)
same,AC50,[21],4.76 µM (active)
CC(C)(Cc1c[nH]c2ccccc12)NCC(O)COc1ccccc1C#N (stereo not drawn) [BUCINDOLOL],IC50,[22],15 µM (inactive)
same,IC50,cells,> 33.3 µM (inactive)
